Measured values published in patent publication US9018258B2, “Substituted 1-benzylcycloalkylcarboxylic acids and the use thereof” (Bayer Intellectual Property GmbH, priority 2010, dated 2015).

What was measured:
GAL4-PPARγ = biological target: T1, GAL4-PPARγ (Homo sapiens, UniProt P37231); experiment: Cellular PPAR transactivation assay, GAL4-PPARγ chimera in CHO-K1 cells; format: cell-based; details: for Emax: CHO-K1, maximum effect relative to reference compound (Example 73 of EP 1 452 521-A1 = 100%), read-out: PPARγ efficacy; for EC50: CHO-K1 cells, luciferase reporter, 6 h stimulation
T1 construct: PPARγ (amino acids 203-506); expressed in transfected cells
T1 sequence (P37231 203-505 limits assumed): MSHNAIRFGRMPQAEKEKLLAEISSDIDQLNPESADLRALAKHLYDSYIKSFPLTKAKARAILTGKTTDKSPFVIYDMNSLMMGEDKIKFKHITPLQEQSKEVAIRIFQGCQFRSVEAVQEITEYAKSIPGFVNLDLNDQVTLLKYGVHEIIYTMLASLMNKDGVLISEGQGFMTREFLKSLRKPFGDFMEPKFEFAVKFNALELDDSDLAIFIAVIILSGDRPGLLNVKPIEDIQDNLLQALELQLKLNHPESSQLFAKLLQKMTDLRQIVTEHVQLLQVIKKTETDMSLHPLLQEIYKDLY
In short: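 CHO-K1 cells stably expressing GAL4 DNA-binding domain fused to the human PPAR ligand-binding domain (α aa 167-468, γ aa 203-506, δ aa 138-442) plus a GAL4-driven firefly luciferase reporter. Compounds added in serum-free medium for 6 h; EC50 from luminescence curves. Efficacy in % of a pan-PPAR agonist reference set as 100%.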

saphenous artery = experiment: Vasorelaxant effect in vitro (phenylephrine-contracted saphenous artery rings); set-up: species or system Rabbits; details: Oryctolagus cuniculus; rabbit saphenous artery rings, phenylephrine-induced contraction
Protocol: Rabbits are anaesthetized and sacrificed by intravenous injection of thiopental sodium (about 50 mg/kg) and exsanguinated. The saphenous artery is removed and divided into rings 3 mm wide. the rings are mounted singly on in each case a pair of triangular hooks open at the end and made of 0.3 mm-thick special wire (Remanium®). Each ring is placed under an initial tension in 5 ml organ baths with Krebs-Henseleit solution which is at 37° C., is gassed with carbogen and has the following composition: NaCl 119 mM; KCl 4.8 mM; CaCl2×2 H2O 1 mM; MgSO4×7 H2O 1.4 mM; KH2PO4 1.2 mM; NaHCO3 25 mM; glucose 10 mM; bovine serum albumin 0.001%. The force of contraction is detected with Statham UC2 cells, amplified and digitized via A/D converters (DAS-1802 HC, Keithley Instruments, Munich) and recorded in parallel on chart recorders. Contractions are induced by addition of phenylephrine.
After several (generally 4) control cycles, the substance to be investigated is added in each further run in increasing dosage, and the level of the contraction achieved under the influence of the test substance is compared with the level of the contraction reached in the last preceding run. The concentration necessary to reduce the contraction reached in the preceding control by 50% is calculated from this (IC50). The standard application volume is 5 μl. The proportion of DMSO in the bath solution corresponds to 0.1%.

Haem-containing sGC = biological target: T2, Haem-containing sGC (Rattus norvegicus, UniProt P20595); experiment: Stimulation of recombinant soluble guanylate cyclase (sGC) in vitro, haem-containing enzyme; format: biochemical
T2 construct: made in house; host or cells: Sf9 insect cells (baculovirus)
From the text: Hoenicka, E. M. Becker, H. Apeler, T. Sirichoke, H. Schroeder, R. Gerzer and J.-P. Stasch, “Purified soluble guanylyl cyclase expressed in a baculovirus/Sf9 system: Stimulation by YC-1, nitric oxide, and carbon oxide”, J. Mol. Med. 77 (1999), 14-23. The haem-free guanylate cyclase is obtained by adding Tween 20 to the sample buffer (0.5% in the final concentration).
The activation of sGC by a test substance is reported as x-fold stimulation of the basal activity.

T2 sequence (P19686 whole entry partner): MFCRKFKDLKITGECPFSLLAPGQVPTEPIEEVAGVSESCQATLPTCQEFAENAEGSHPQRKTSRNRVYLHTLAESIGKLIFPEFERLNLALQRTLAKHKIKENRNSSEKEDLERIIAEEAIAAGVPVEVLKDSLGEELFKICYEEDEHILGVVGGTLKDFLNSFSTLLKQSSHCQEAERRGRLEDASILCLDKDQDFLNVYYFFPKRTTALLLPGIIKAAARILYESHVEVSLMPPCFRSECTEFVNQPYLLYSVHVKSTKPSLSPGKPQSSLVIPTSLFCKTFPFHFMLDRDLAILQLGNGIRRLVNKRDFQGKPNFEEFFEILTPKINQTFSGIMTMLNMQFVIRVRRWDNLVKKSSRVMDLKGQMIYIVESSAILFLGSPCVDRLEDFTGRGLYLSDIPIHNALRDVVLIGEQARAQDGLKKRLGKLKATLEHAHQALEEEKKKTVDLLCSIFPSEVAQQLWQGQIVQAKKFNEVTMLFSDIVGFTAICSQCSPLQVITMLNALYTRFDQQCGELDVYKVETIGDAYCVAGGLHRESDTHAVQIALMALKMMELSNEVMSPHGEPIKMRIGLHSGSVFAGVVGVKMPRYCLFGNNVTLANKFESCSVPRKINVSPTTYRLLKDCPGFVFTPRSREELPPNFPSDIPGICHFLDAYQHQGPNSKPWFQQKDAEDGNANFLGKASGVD
T2 sequence (P20595 whole entry): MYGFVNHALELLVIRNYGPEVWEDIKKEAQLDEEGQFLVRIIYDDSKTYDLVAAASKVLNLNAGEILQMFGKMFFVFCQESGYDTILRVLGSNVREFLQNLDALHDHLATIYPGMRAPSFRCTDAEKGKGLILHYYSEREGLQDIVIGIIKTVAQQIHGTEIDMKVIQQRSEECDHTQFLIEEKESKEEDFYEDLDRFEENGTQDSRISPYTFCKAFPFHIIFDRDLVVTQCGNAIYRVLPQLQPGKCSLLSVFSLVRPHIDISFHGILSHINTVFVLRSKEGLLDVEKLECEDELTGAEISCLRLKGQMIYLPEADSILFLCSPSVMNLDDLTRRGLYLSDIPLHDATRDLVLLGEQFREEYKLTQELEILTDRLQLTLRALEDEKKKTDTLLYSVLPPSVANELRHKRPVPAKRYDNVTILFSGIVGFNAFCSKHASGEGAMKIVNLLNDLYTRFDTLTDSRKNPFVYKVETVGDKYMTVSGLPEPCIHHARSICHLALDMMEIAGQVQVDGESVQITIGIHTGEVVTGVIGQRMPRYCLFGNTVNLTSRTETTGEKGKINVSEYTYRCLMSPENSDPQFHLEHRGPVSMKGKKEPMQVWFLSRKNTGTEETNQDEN

| Emax (GAL4-PPARγ) [%] | EC50 (GAL4-PPARγ) [nM] | IC50 (saphenous artery) [nM] | Stimulation (x-fold) of recombinant sGC, +0.01 μM DEA/NO (Haem-containing sGC; test substance 0.01 μM) [x-fold] | Stimulation (x-fold) of recombinant sGC, +0.01 μM DEA/NO (Haem-containing sGC; test substance 0.1 μM) [x-fold] | Stimulation (x-fold) of recombinant sGC, +0.01 μM DEA/NO (Haem-containing sGC; test substance 1.0 μM) [x-fold] | Stimulation (x-fold) of recombinant sGC, +0.01 μM DEA/NO (Haem-containing sGC; test substance 10 μM) [x-fold] | Stimulation (x-fold) of recombinant sGC, +0.01 μM DEA/NO (Haem-containing sGC; test substance 100 μM) [x-fold] | Stimulation (x-fold) of recombinant sGC, +10 μM ODQ (Haem-containing sGC; test substance 0.01 μM) [x-fold] | Stimulation (x-fold) of recombinant sGC, +10 μM ODQ (Haem-containing sGC; test substance 0.1 μM) [x-fold] | Stimulation (x-fold) of recombinant sGC, +10 μM ODQ (Haem-containing sGC; test substance 1.0 μM) [x-fold] | Stimulation (x-fold) of recombinant sGC, +10 μM ODQ (Haem-containing sGC; test substance 10 μM) [x-fold] | Stimulation (x-fold) of recombinant sGC, +10 μM ODQ (Haem-containing sGC; test substance 100 μM) [x-fold] | Effect of combination with DEA/NO (NO donor) on sGC stimulation (Haem-containing sGC) | Stimulation (x-fold) of recombinant sGC, Basal (Haem-containing sGC; test substance 0.01 μM) [x-fold] | Stimulation (x-fold) of recombinant sGC, Basal (Haem-containing sGC; test substance 0.1 μM) [x-fold] | Stimulation (x-fold) of recombinant sGC, Basal (Haem-containing sGC; test substance 1.0 μM) [x-fold] | Stimulation (x-fold) of recombinant sGC, Basal (Haem-containing sGC; test substance 10 μM) [x-fold] | Stimulation (x-fold) of recombinant sGC, Basal (Haem-containing sGC; test substance 100 μM) [x-fold] | Compound |
| --- | --- | --- | --- | --- | --- | --- | --- | --- | --- | --- | --- | --- | --- | --- | --- | --- | --- | --- | --- |
| 0 | > 10000 | 685 | – | – | – | – | – | – | – | – | – | – | – | – | – | – | – | – | CCOC(c1ccc(Cl)c(NC(=O)[C@H](c2ccc(Cl)cc2)[C@@H](C)C(F)(F)F)c1)C1(C(=O)O)CC1 (single isomer, unassigned) [Example 101] |
| 45 | 3000 | 145 | 7.5 ± 1.8 | 7.6 ± 1.8 | 9.0 ± 2.0 | 13.3 ± 2.2 | 14.6 ± 2.2 | 9.2 ± 1.4 | 9.6 ± 1.5 | 12.7 ± 1.5 | 21.5 ± 2.2 | 22.6 ± 2.6 | no synergistic effect | 1.4 ± 0.1 | 1.2 ± 0.1 | 2.6 ± 0.4 | 6.4 ± 0.6 | 9.5 ± 0.9 | C[C@H]([C@H](C(=O)Nc1cc(CC2(C(=O)O)CC2)ccc1Cl)c1ccc(Cl)cc1)C(F)(F)F [Example 50, (+)-1-(4-Chloro-3-{[(2S,3R)-2-(4-chlorophenyl)-4,4,4-trifluoro-3-methylbutanoyl]amino}benzyl)-cyclopropanecarboxylic acid] |
| 0 | > 10000 | – | 4.0 ± 0.6 | 4.4 ± 0.8 | 5.0 ± 1.7 | 5.3 ± 1.8 | – | 4.3 ± 0.4 | 5.7 ± 0.3 | 9.2 ± 0.9 | 10.3 ± 1.3 | – | no synergistic effect | 1.0 ± 0.0 | 1.5 ± 0.2 | 1.8 ± 0.3 | 2.6 ± 0.4 | – | [2H]C([2H])([2H])OC(c1ccc(Cl)c(NC(=O)[C@H](c2ccc(Cl)cc2)[C@@H](C)C(F)(F)F)c1)C1(C(=O)O)CC1 (single isomer, unassigned; (+)) [Example 99] |
| 20 | 2300 | 606 | – | – | – | – | – | – | – | – | – | – | – | – | – | – | – | – | C[C@H]([C@H](C(=O)Nc1cc(CC2(C(=O)O)CC2)ccc1Cl)c1ccc(Cl)c(F)c1)C(F)(F)F [Example 30, (+)-1-(4-chloro-3-{[(2S,3R)-2-(4-chloro-3-fluoro-phenyl)-4,4,4-trifluoro-3-methylbutanoyl]amino}-benzyl)cyclopropanecarboxylic acid] |
